# pIC50: −log10 of the molar value.
# How the values were obtained:
# KATO III = assay: 2D cell proliferation assay, KATO III; format: cell-based; conditions: Homo sapiens, 96 hours, CTG, read-out: Cell Line, IC50 KATO III
# Experimental: (§1) Low IC50 values are indicative of the high potency of the FGFR inhibitor compounds in this assay selling. […] Cell proliferation assays are performed in two-dimensional (2D)) anchorage-dependent conditions in 96 well plates (Corning® Black/Clear flat Bottom, Cat #3603) with the following cell lines: • Ba/F3 FGFR2-BICC1 (human […]): Mouse Ba/F3 cell line stably expressed exogenous human FGFR2-BICC1 fusion gene bearing V546F mutation in FGFR2 Ba/F3; • FGFR2-BICC1 (human FGFR2/[…]): Mouse Ba/F3 cell line stably expressed exogenous human FGFR2-BICC1 fusion gene bearing N549K mutation in FGFR2; • Snu-16: human gastric cancer cell with FGFR2 amplification; • KATO III: human gastric cancer cell with FGFR2 amplification; • AN3CA: Human endometrial cancer with FGFR2 mutation (k310R, N549K); • MFM-223: Human breast cancer with FGFR1/2 amplification; • MFE-296: Human endometrial cancer with FGFR2 mutation (N549K); • MFE-280: Human endometrial cancer with FGFR2 mutation ([…]); • NCI-H1581: human non-small cell lung cancer with FGFR1 amplification; • KG-1a: Acute myelogenous leukemia with FGFR1OP2-FGFR1 translocation; • DMS114: human small cell carcinoma of the lung with FGFR1 amplification; • RT112: human bladder cancer with FGFR3 overexpression/FGFR3-TACC3 fusion; • SW780: human bladder cancer with FGFR3 overexpression/FGFR3-BALAP2L1 fusion; • Hep3B: Liver cancer with FGF19 amplification (FGFR4 ligand); • AGS: Human gastric adenocarcinoma with Kras G12D mutation and FGFR wild type; • PC-9: human non-small cell lung cancer (NSCLC) with wild-type FGFR and an EGFR del19 mutation; or • H1975: human non-small cell lung cancer (NSCLC) with wild-type FGFR and EGFR L858R/T790M mutation.
# (§2) Cell lines are purchased from the American Type Culture Collection (ATCC) or Sigma. All cell lines are maintained in RPMI-1640 or DMEM supplemented with 10% heat-inactivated fetal bovine serum.
# (§3) Cells growing in the log phase are detached with Gibco™ TrypLE™ Express Enzyme and plated in 96 well plate at 3000 to 5000 cells/well in 100 μl of media. After overnight incubation at 37° C., 5% CO2 incubator, cells are treated with compounds (50 uL/well) at the final concentrations spanning from 0.000038 uM to 10 μM (4-fold serial dilution for total of 10 points). Cells are incubated at 37° C., 5% CO2, and 95% humidity incubator for 96 hours. At the end of incubation 2D CTG reagent from Promega was added to each well according to vendors recommendation and mixed for 10 min in dark. The luminescence signals are determined with a Biotek™ plate reader. Data is fitted using a sigmoidal curve analysis program (GraphPad Prism®) with variable hill slope and IC50 is determined.
# AN3CA = assay: 2D cell proliferation assay, AN3CA; format: cell-based; conditions: Homo sapiens, AN3-CA, 96 hours, CTG, read-out: Cell Line, IC50 AN3CA
# Experimental: as §1, §2, §3
# FGFR1 = target: T1, FGFR1 (Homo sapiens, UniProt P11362); assay: pERK potency assay (In Cell ELISA), DMS114 cells; format: cell-based; conditions: DMS114 (FGFR1 amplification) cells, 3 hours
# T1 construct: DMS114 (FGFR1 amplification); host or cells: DMS114
# T1 sequence (P11362 22-822): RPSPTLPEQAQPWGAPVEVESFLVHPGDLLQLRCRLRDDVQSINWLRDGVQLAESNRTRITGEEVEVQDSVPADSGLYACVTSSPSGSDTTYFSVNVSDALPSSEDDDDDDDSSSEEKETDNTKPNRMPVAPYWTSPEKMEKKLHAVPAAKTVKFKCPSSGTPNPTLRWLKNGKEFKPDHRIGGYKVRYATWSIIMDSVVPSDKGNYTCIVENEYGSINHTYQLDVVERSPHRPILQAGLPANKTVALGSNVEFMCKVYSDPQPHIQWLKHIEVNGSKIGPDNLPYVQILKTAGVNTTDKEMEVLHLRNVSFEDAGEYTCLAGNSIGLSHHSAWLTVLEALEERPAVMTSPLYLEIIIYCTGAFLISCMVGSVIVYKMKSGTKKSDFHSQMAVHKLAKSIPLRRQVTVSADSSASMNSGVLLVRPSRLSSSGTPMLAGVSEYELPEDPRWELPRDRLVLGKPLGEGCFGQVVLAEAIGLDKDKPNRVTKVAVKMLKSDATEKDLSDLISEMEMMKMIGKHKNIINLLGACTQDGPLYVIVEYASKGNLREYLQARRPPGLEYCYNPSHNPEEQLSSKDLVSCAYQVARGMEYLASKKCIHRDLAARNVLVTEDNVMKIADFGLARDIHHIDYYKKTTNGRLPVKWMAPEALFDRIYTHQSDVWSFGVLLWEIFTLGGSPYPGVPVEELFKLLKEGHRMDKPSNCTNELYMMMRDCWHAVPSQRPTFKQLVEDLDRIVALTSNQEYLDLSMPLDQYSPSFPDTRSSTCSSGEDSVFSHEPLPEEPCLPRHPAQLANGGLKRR
# Outline: (§4)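 IC50 values come from a 4-parameter sigmoidal fit of in-cell ELISA chemiluminescent pERK (Thr202/Tyr204) signal. Treatment lasted 3 h at 37 °C, final 0.000038 to 10 μM in 4-fold steps, using AN3CA (mutant FGFR2), DMS114 (amplified FGFR1) and RT112 (FGFR3 overexpression/fusion) cells.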
# Ba/F3 FGFR2-N549K = target: T2, Ba/F3 FGFR2-N549K (Homo sapiens, UniProt P21802, N549K, cells depend on it); assay: 2D cell proliferation assay, Ba/F3 FGFR2-N549K; format: cell-based, mouse; conditions: 96 hours, CTG, read-out: Cell Line, IC50 Ba/F3 FGFR2-N549K
# T2 construct: fused on or other part: Q9H694 (Protein bicaudal C homolog 1)
# T2 sequence (P21802 whole entry N549K, the tested form may be a part): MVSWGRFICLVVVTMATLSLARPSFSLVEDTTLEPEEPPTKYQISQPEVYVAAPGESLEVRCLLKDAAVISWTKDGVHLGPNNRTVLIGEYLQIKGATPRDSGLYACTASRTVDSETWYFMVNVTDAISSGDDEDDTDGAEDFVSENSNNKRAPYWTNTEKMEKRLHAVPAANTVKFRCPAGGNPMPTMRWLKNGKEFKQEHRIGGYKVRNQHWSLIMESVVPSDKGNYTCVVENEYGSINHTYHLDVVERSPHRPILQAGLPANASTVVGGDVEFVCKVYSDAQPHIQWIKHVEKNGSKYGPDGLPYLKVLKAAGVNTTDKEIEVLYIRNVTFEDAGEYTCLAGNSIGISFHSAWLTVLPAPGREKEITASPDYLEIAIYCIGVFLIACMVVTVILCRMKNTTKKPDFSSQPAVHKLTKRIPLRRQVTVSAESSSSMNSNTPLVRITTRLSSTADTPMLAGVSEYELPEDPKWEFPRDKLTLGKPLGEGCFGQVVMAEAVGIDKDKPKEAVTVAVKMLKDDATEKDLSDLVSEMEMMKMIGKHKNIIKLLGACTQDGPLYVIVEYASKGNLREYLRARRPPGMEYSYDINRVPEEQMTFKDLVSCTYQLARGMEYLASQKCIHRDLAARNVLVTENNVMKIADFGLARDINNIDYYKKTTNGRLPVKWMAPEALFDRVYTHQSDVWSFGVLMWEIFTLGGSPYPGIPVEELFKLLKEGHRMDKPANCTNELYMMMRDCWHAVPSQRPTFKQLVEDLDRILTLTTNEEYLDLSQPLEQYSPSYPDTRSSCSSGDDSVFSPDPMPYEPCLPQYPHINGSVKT
# Experimental: as §1, §2, §3
# FGFR3 = target: T3, FGFR3 (Homo sapiens, UniProt P22607); assay: pERK potency assay (In Cell ELISA), RT112 cells; format: cell-based; conditions: RT112 (FGFR3 overexpression/FGFR3-TACC3 fusion) cells, 3 hours
# T3 construct: RT112 (FGFR3 overexpression/FGFR3-TACC3 fusion); host or cells: RT112; the other entry of the earlier key: TACC3 (Q9Y6A5, Transforming acidic coiled-coil-containing protein 3)
# Outline: as §4
# FGFR2 = target: T4, FGFR2 (Homo sapiens, UniProt P21802, K310R/N549K); assay: pERK potency assay (In Cell ELISA), AN3CA cells; format: cell-based; conditions: for pIC50: pERK, AN3CA (FGFR2/k310R, N549K) cells, 3 hours; for FGFR1 IC50/FGFR2 IC50 / FGFR3 IC50/FGFR2 IC50: selectivity ratio, pERK potency; for FGFR1 IC50/FGFR2 IC50: FGFR2 relative to FGFR1; for FGFR3 IC50/FGFR2 IC50: FGFR2 relative to FGFR3
# T4 construct: in FGFR aberrations of AN3CA (FGFR2/k310R, N549K); host or cells: AN3CA
# T4 sequence (P21802 22-821 K310R/N549K): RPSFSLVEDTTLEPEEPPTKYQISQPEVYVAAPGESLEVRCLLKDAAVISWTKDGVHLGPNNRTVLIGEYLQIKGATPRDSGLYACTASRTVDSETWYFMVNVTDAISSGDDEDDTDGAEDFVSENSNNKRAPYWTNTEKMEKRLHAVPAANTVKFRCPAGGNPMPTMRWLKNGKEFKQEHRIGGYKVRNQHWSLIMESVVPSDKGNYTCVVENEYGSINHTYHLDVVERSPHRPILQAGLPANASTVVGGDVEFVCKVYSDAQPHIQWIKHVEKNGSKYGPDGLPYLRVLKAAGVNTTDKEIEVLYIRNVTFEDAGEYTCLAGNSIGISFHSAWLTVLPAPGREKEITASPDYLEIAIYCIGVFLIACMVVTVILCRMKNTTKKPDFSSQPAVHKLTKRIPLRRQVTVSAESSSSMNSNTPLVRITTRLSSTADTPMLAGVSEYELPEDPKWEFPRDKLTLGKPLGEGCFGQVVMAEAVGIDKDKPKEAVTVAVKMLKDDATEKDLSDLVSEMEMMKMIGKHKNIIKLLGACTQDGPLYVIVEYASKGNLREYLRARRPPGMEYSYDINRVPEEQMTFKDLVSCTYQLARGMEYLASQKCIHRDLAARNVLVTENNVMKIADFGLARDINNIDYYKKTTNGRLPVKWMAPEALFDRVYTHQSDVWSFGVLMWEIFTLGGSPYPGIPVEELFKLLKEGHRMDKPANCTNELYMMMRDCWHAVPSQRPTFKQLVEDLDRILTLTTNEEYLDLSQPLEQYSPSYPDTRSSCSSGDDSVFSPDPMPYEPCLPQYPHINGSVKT
# Outline: as §4
# Ba/F3 FGFR2-V564F = target: T5, Ba/F3 FGFR2-V564F (Homo sapiens, UniProt P21802, V564F, cells depend on it); assay: 2D cell proliferation assay, Ba/F3 FGFR2-V564F; format: cell-based, mouse; conditions: 96 hours, CTG, read-out: Cell Line, IC50 Ba/F3 FGFR2-V564F
# T5 construct: fused on or other part: Q9H694 (Protein bicaudal C homolog 1)
# T5 sequence (P21802 whole entry V564F, the tested form may be a part): as the sequence (P21802 whole entry N549K, the tested form may be a part) above, with K549N, V564F counted along it
# Experimental: as §1, §2, §3
# SNU-16 = assay: 2D cell proliferation assay, SNU-16; format: cell-based; conditions: Homo sapiens, 96 hours, CTG, read-out: Cell Line, IC50 SNU-16
# Experimental: as §1, §2, §3
pIC50 (FGFR1),GI50 (Ba/F3 FGFR2-N549K) [nM],pIC50 (FGFR3),pIC50 (FGFR2),GI50 (Ba/F3 FGFR2-V564F) [nM],pIC50 (SNU-16),Structure (SMILES),pIC50 (KATO III),pIC50 (AN3CA),FGFR1 IC50/FGFR2 IC50 (FGFR2),FGFR3 IC50/FGFR2 IC50 (FGFR2)
< 7.00,10 to 30,< 7.00,8.00 to 9.00,> 100,8.00 to 9.00,"C=CC(=O)N1CCC2(CC=C(c3c(C#N)c4c(N)ncnc4n3C)CC2)CC1 [Example 57, 6-(3-acryloyl-3-azaspiro[5.5]undec-8-en-9-yl)-4-amino-7-methyl-7H-pyrrolo[2,3-d]pyrimidine-5-carbonitrile]",8.00 to 9.00,8.00 to 9.00,G (a selectivity ratio greater than 150 but less than or equal to 500),H (a selectivity ratio greater than 500 but less than or equal to 1000)
< 7.00,1 to 10,< 7.00,8.00 to 9.00,1 to 10,8.00 to 9.00,"C=CC(=O)N1CCC2(CC=C(c3c(-c4ccc(OC5CC5)nc4)c4c(N)ncnc4n3C)CC2)CC1 [Example 22, 1-(9-(4-amino-5-(6-cyclopropoxypyridin-3-yl)-7-methyl-7H-pyrrolo[2,3-d]pyrimidin-6-yl)-3-azaspiro[5.5]undec-8-en-3-yl)prop-2-en-1-one]",8.00 to 9.00,7.52 to 8.00,G (a selectivity ratio greater than 150 but less than or equal to 500),G (a selectivity ratio greater than 150 but less than or equal to 500)
< 7.00,1 to 10,< 7.00,≥ 9.00,1 to 10,8.00 to 9.00,"C=CC(=O)N1CCC2(CC=C(c3c(-c4ccc(OC5CC5)cc4)c4c(N)ncnc4n3C)CC2)CC1 [Example 18, 1-(9-(4-amino-5-(4-cyclopropoxyphenyl)-7-methyl-7H-pyrrolo[2,3-d]pyrimidin-6-yl)-3-azaspiro[5.5]undec-8-en-3-yl)prop-2-en-1-one]",8.00 to 9.00,7.52 to 8.00,G (a selectivity ratio greater than 150 but less than or equal to 500),G (a selectivity ratio greater than 150 but less than or equal to 500)
< 7.00,10 to 30,< 7.00,8.00 to 9.00,≤ 1,7.52 to 8.00,"C=CC(=O)N1CCC2(CC=C(c3c(-c4ccc(Oc5nccc(C)n5)c(F)c4)c4c(N)ncnc4n3C)CC2)CC1 [Example 62, 1-(9-(4-amino-5-(3-fluoro-4-((4-methylpyrimidin-2-yl)oxy)phenyl)-7-methyl-7H-pyrrolo[2,3-d]pyrimidin-6-yl)-3-azaspiro[5.5]undec-8-en-3-yl)prop-2-en-1-one]",7.52 to 8.00,7.00 to 7.52,F (a selectivity ratio greater than 50 but less than or equal to 150),G (a selectivity ratio greater than 150 but less than or equal to 500)
< 7.00,1 to 10,< 7.00,8.00 to 9.00,30 to 100,7.52 to 8.00,"C=CC(=O)N1CCC2(CC=C(c3c(-c4ccc(F)cc4)c4c(N)ncnc4n3C)CC2)CC1 [Example 11, 1-(9-(4-amino-5-(4-fluorophenyl)-7-methyl-7H-pyrrolo[2,3-d]pyrimidin-6-yl)-3-azaspiro[5.5]undec-8-en-3-yl)prop-2-en-1-one]",7.00 to 7.52,7.00 to 7.52,I (a selectivity ratio greater than 1000 but less than or equal to 2000),J (a selectivity ratio greater than 2000)
< 7.00,1 to 10,< 7.00,≥ 9.00,1 to 10,7.52 to 8.00,"C=CC(=O)N1CCC2(CC=C(c3c(-c4ncc(C(F)(F)F)cn4)c4c(N)ncnc4n3C)CC2)CC1 [Example 42, 1-(9-(4-amino-7-methyl-5-(5-(trifluoromethyl)pyrimidin-2-yl)-7H-pyrrolo[2,3-d]pyrimidin-6-yl)-3-azaspiro[5.5]undec-8-en-3-yl)prop-2-en-1-one]",7.52 to 8.00,7.52 to 8.00,J (a selectivity ratio greater than 2000),J (a selectivity ratio greater than 2000)
< 7.00,1 to 10,< 7.00,≥ 9.00,≤ 1,8.00 to 9.00,"C=CC(=O)N1CCC2(CC=C(c3c(-c4ncc(C(F)F)cn4)c4c(N)ncnc4n3C)CC2)CC1 [Example 56, 1-(9-(4-amino-5-(5-(difluoromethyl)pyrimidin-2-yl)-7-methyl-7H-pyrrolo[2,3-d]pyrimidin-6-yl)-3-azaspiro[5.5]undec-8-en-3-yl)prop-2-en-1-one]",8.00 to 9.00,≥ 9.00,G (a selectivity ratio greater than 150 but less than or equal to 500),I (a selectivity ratio greater than 1000 but less than or equal to 2000)
< 7.00,1 to 10,< 7.00,8.00 to 9.00,≤ 1,8.00 to 9.00,"C=CC(=O)N1CCC2(CC=C(c3c(-c4ncccn4)c4c(N)ncnc4n3C)CC2)CC1 [Example 33, 1-(9-(4-amino-7-methyl-5-(pyrimidin-2-yl)-7H-pyrrolo[2,3-d]pyrimidin-6-yl)-3-azaspiro[5.5]undec-8-en-3-yl)prop-2-en-1-one]",8.00 to 9.00,7.52 to 8.00,G (a selectivity ratio greater than 150 but less than or equal to 500),I (a selectivity ratio greater than 1000 but less than or equal to 2000)

Structure (SMILES),pIC50 (FGFR1),GI50 (Ba/F3 FGFR2-N549K) [nM],pIC50 (FGFR3),pIC50 (FGFR2),GI50 (Ba/F3 FGFR2-V564F) [nM],pIC50 (SNU-16),pIC50 (KATO III),pIC50 (AN3CA),FGFR1 IC50/FGFR2 IC50 (FGFR2),FGFR3 IC50/FGFR2 IC50 (FGFR2)
"C=CC(=O)N1CCC2(CC=C(c3c(-c4ccc(OC5CCC5)nc4)c4c(N)ncnc4n3C)CC2)CC1 [Example 26, 1-(9-(4-amino-5-(6-cyclobutoxypyridin-3-yl)-7-methyl-7H-pyrrolo[2,3-d]pyrimidin-6-yl)-3-azaspiro[5.5]undec-8-en-3-yl)prop-2-en-1-one]",< 7.00,1 to 10,< 7.00,8.00 to 9.00,1 to 10,8.00 to 9.00,8.00 to 9.00,7.52 to 8.00,F (a selectivity ratio greater than 50 but less than or equal to 150),G (a selectivity ratio greater than 150 but less than or equal to 500)
